Read-outs that look alike come from different tables or passages of the source.
Columns and labels:
[1] = test system: BALB/c mice; assay: Anti-hAAT antibody titers and IgG subclass ratios; format: in vivo, mouse; details: for increase of anti-hAAT titers: 25 μg hAAT protein administered with 1 mM lipid, day 14
Protocol: To assess the presence of antibodies toward hAAT, 50 μL of hAAT (OriGene #RG202082) was plated at 2 μg/mL in carbonate buffer, pH 9.7, on a 96 well high binding plate (Greiner #82050-720) and incubated overnight at 4° C. The next day, the plates were washed with PBS containing 0.1% Tween-20 (PBS-T) and blocked for 1 hour with PBS-C at 37° C. After blocking, serum samples were plated at dilutions ranging from 1:100 to 1:1,000,000 and incubated at 37° C. for 2 hours. Secondary antibody (goat anti-mouse IgG HRP; Invitrogen #16066) diluted 1:2000 was applied for 30 min at 37° C., followed by a 30 min. incubation with tetramethylbenzidine (Rockland). Absorbance at 450 nm was recorded using a BioTek Synergy H1 microplate reader. Reciprocal endpoint titers were determined by plotting A450 values versus known dilutions, calculating the slope of that line, and dividing the slope by two times the average of the blank (no serum) wells.
Anti-hAAT IgG subclass ratios were assessed as described above, using a single 1:100 sample dilution and the following detection antibodies: goat anti-mouse IgG1-HRP (Abcam ab98693) at 1:10,000, IgG2a-HRP (Abcam ab98698) at 1:5000, IgG2b-HRP (Abcam ab98703) at 1:10,000 and IgG3 (Jackson 115-035-209) at 1:5000. Subclass ratios were calculated by dividing the absorbance of each subclass by that of IgG1 for each individual mouse.

[2] = Size and charge determination of nanoparticles (Zetasizer Nano ZS), Example 1; format: physicochemical
Source text: Size and Charge Determination.

[3] = test system: bone marrow derived macrophages; assay: in vitro; format: cell-based
Protocol: (§1) Cell Culture of Bone Marrow-Derived Macrophages. […] After 7 days, the cells were transferred to tissue culture 96 well plates (Corning) at a density of 100,000 in 20 μL of medium and allowed to settle overnight for subsequent assays.
(§2) Lactate Dehydrogenase Release (LDH) Toxicity Assay. For determination of cytotoxicity, mature bone marrow-derived macrophages (BMDM) were treated with 20 μL of the lipids (concentrations denoted in figure legend) diluted in 20 mM HEPES buffer, with HEPES buffer as negative control and 10% Triton X-100 as positive control. After 24 hours, the 96 well plates were centrifuged at 200×g for 5 minutes to remove debris and 100 μL of media was transferred to an untreated flat-bottom 96 well plate. Next, 100 μL of LDH reaction reagent purchased from Cayman Chemical (Ann Arbor, MI) was added to each and allowed to sit for 30 minutes at 37° C. Absorbance at 490 and 680 nm were measured using a BioTek Synergy H1 plate reader and the data were processed using Microsoft Excel. Mean values from triplicates are shown for one of two independent experiments.

[4] = test system: C57BL/6J mice; assay: In vivo toxicity of cationic lipid nanoparticles (ALT, IL-6, SCr, mortality)
[5] = Characterization of nanoparticles (size, zeta potential, DNA encapsulation), Example 2; format: physicochemical; details: LNPs made with the cationic lipid
Protocol: The concentration of DNA in LNPs after dialysis was quantified using an AccuClear® Ultra High Sensitivity dsDNA Quantification Kit (Biotium #31027) and quantified on a BioTek Synergy H1 plate reader. Encapsulation efficiencies were determined by comparing the amount of DNA in the LNP solution vs. the DNA solution used to make them, after disrupting the LNPs with 0.5% Cl2E10 (Abcam #ab146563) and adjusting for volume differences (i.e.: excess volume added during dialysis and dilution volume during ethanol mixture).

[6] = test system: canonical NFKB; assay: THP-1-Blue NFKB reporter (SEAP) assay; format: cell-based, human; details: read-out: IC50, canonical NFKB inhibition
[7] = test system: BALB/c mice; assay: In vivo hAAT transfection efficiency, serum ELISA and ALT; design: species or system mouse; details: LPs (50% cationic lipid, 50% DOPE), 10,000 ng hAAT plasmid DNA i.p., 72 hours
Protocol: To assess in vivo hAAT transfection efficiency, mice were administered 200 μL nanoparticles or PBS vehicle i.p. at the doses indicated in the figure legend. Seventy-two hours after injection the mice were bled again for assessment of ALT levels and hAAT expression. hAAT levels were determined via ELISA using serum diluted 1:1 in PBS containing 0.05% casein (PBS-C; 124250; Beantown Chemical), as described previously.^38

[8] = Differential scanning calorimetry, transition temperature (Tm) of lipids; format: physicochemical; details: liposomes of pure lipid, 10 mM in 20 mM HEPES, DSC
Protocol: Differential Scanning calorimetery. The transition temperature (Tm) of the lipids was determined using a multicell differential scanning calorimeter (TA Instruments). Liposomes were made with triazine lipids at a concentration of 10 mM in 20 mM HEPES buffer. These were heated to 60° C. and sonicated until the solution was translucent. For Tm determination, 250 μL of the liposome solution was transferred into reusable hastelloy ampoules while 250 μL of the HEPES solution was transferred to the third ampoule, leaving the reference ampoule empty. […] Data was collected over a range of 10-110° C. at a rate of 2° C. min-1 in a heat-cool-heat cycle. After the run was complete, the CpCalc 2.1 software package was used to convert the raw data into a molar heat capacity and the data from the second heating cycle were processed using Microsoft Excel.

[9] = Nanoparticle pKa via TNS fluorescence; format: physicochemical; details: liposomes, pH 2.5 to 12
Protocol: Determination of Nanoparticle pKa via TNS Fluorescence. […] The solutions were mixed by pipetting and incubated at room temperature for 10 minutes, before being analysed for fluorescence intensity using a 321 nm excitation and 445 nm emission wavelengths.

[10] = in vitro; format: cell-based; details: female, C57BL/6J, mouse
Protocol: as §1, §2

[11] = test system: HeLa cells; assay: Transfection of luciferase plasmid; format: cell-based
Protocol: Transfection of Luciferase Plasmid and Cell Viability. HeLa cells cultured in EMEM (ATCC) supplemented with 10% fetal bovine serum were transferred to a 96 well plate, in quadruplicate, at a density of 20,000 cells per well and incubated for 24 hours at 37° C. in 5% CO2. Liposomes made with a 1:1 ratio of DOPE and TZ lipid were added to 200 ng pGL3 Luciferase Reporter Vector (Promega) at N:P ratios of 2.5, 5 and 10, and incubated at 37° C. for 10 minutes before being diluted in 100 μL of nonsupplemented EMEM and added to the cells. Following a four hour incubation at 37° C., the media was changed, and the cells were incubated for another twenty hours, at which point the cells were lysed with a cell culture lysis reagent at pH 7.8 composed of 25 mM Tris-phosphate buffer, 0.7 g L^−1 1,2-diaminocyclohexane, 10% glycerol, 1% Triton X-100, and 1% protease inhibitor cocktail (Millipore). Total protein content was determined with a bicinchoninic acid assay (G-Biosciences) and luciferase protein expression was quantified by a luciferase assay (Promega). Cell viability was assessed using a Cell Titer Blue assay kit (Promega) based on the manufacturer's instructions. In each of the three independent experiments performed, transfection was compared with cells treated with Lipofectamine 3000 (Thermo), following the manufacturer's instructions, and with DNA treated cells.

[12] = liposomes, lipid:DOPE mixtures, lipoplexes, immunization liposomes (Table 2)
[13] = 20 mM lipid, i.p., versus baseline
[14] = nanoparticles of pure lipid (Table 1)
[15] = nanoparticles of pure lipid, 1 mM, 25° C. (Table 1)
[16] = zeta potential, nanoparticles of pure lipid (Table 1)
[17] = unstable nanoparticles of lipids 11 and 12, text

SMILES | PDI [2, 14] | Size [2, 15] | Charge [2, 16] [mV] | Tm [8] [°C] | IC50 [3] [µM] | further results
CCCCCCCCCCCCCCCCCC(=O)OC[C@@H](COP(=O)([O-])OCC[N+](C)(C)C)OC(=O)CCCCCCCCCCCCCCCCC (stereo in doubt) [DSPC, 1,2-distearoyl-sn-glycero-3-phosphocholine, reference compound] | – | – | – | – | – | increase of anti-hAAT titers [1]: 100 fold
CCCCCCCCCCCCCC(=O)OC[C@H](COP(=O)([O-])OCC[N+](C)(C)C)OC(=O)CCCCCCCCCCCCC [DMPC, 1,2-Dimyristoyl-sn-glycero-3-phosphocholine, reference compound] | – | – | – | – | – | PDI ([2]; Table 2): 0.39 ± 0.01; Size [2, 12]: 277 ± 45 nm; Charge ([2]; zeta potential (Table 2)): −9 ± 0.3 mV; LD50 ([3]; LDH activity, BMDMs incubated 24 hours, text of Example 3): 969 µM; LD50 ([3]; LDH release, 24 hours (Table 2)): 969 µM
CCCCCCCC/C=C\CCCCCCCC(=O)OCC(C[N+](C)(C)C)OC(=O)CCCCCCC/C=C\CCCCCCCC.[Cl-] (stereo not drawn) [DOTAP, 1,2-dioleoyl-3-trimethylammonium propane, reference compound] | – | – | – | – | – | interleukin 6 (IL-6) [4, 13]: neither these nor the IL-6 elevation in DOTAP-treated mice reached statistical significance; increase of anti-hAAT titers [1]: 10 fold; anti-hAAT IgG titers ([1]; transgene delivery, 10 μg hAAT DNA, day 14, versus untreated mice): significantly higher anti-hAAT titers than untreated mice; Th1/Th2 response (ratios of IgG2a, 2b, and 3 over IgG1) ([1]; transgenic hAAT delivery with LPs): balanced Th1/Th2 response; encapsulation of DNA (general) [5]: 70-80%; IC50 ([6]; Homo sapiens, 24 h): 28 µM; average hAAT levels in serum [7]: 3 ng/mL
CCCCCCCC/C=C\CCCCCCCCOCC(C[N+](C)(C)C)OCCCCCCCC/C=C\CCCCCCCC (stereo not drawn) [DOTMA, 1,2-di-O-octadecenyl-3-trimethylammonium propane, reference compound] | – | – | – | – | – | PDI ([2]; Table 2): 0.43 ± 0.06; Size [2, 12]: 105 ± 2 nm; Charge ([2]; zeta potential (Table 2)): 70 ± 4 mV
CCCCCCCCCCCCN(CCCCCCCCCCCC)c1nc(NCCC(=O)O)nc(NCCC(=O)O)n1 [Lipid 1] | 0.24 ± 0.02 | 124 ± 2 nm | −63 ± 4 | < 10 | 1100 | –
CCCCCCCCCCCCCCCCCCN(CCCCCCCCCCCCCCCCCC)c1nc(NCCCN)nc(NCCCN)n1 [Lipid 4] | 0.28 ± 0.00 | 326 ± 1 nm | 63 ± 3 | 33 | 180 | pKa [9]: 5.59; IC50 ([6]; THP-1-Blue cells stimulated with TNFα, 24 h lipid treatment): 29 µM
CCCCCCCCCCCCN(CCCCCCCCCCCC)c1nc(NCCS)nc(NCCC(=O)O)n1 [Lipid 5] | 0.40 ± 0.00 | 87 ± 2 nm | −73 ± 6 | < 10 | 679 | –
CCCCCCCCCCCCCCCCCCN(CCCCCCCCCCCCCCCCCC)c1nc(NCCS)nc(NCCC(=O)O)n1 [Lipid 6] | 0.27 ± 0.01 | 93 ± 2 nm | −71 ± 5 | 40 | 988 | –
CCCCCCCCCCCCN(CCCCCCCCCCCC)c1nc(NCCCN(C)C)nc(NCCCN(C)C)n1 [Lipid 9] | 0.24 ± 0.00 | 159 ± 1 nm | 45 ± 2 | < 10 | – | deaths ([4]; 10 mM lipid, i.p.): one mouse dying; interleukin 6 (IL-6) ([4]; 10 mM lipid, i.p.): statistically significant increases; serum alanine aminotransferase (ALT) ([4]; 10 mM lipid, i.p.): statistically significant increases; deaths ([4]; 20 mM lipid, i.p.): three of the ten mice in this group died; interleukin 6 (IL-6) [4, 13]: significant elevations; serum alanine aminotransferase (ALT) [4, 13]: significant elevations; serum creatinine (SCr) [4, 13]: elevated but did not reach statistical significance; in vivo toxicity (overall) ([4]; 100 μL cationic lipid nanoparticles i.p.): confers significant toxicity and mortality; visual examination of internal organs ([4]; 72 hours, 10 and 20 mM): significant inflammation and swelling throughout the intestines and abdominal cavity; LD50 ([3]; female, C57BL/6J, mouse, 24 h): 337000 µM; IC50 at 24 h [10]: 337 µM; plasmid transfection (luciferase) ([11]; TZ lipid:DOPE 1:1, compared with naked plasmid): better efficacy than the lipids with C18 tails; luciferase expression ([11]; average, lipid 9:DOPE 1:1 at an N:P ratio of 5, 200 ng pGL3): 462 RLU per mg
CCCCCCCCCCCCCCCCCCN(CCCCCCCCCCCCCCCCCC)c1nc(NCCCN(C)C)nc(NCCCN(C)C)n1 [Lipid 10] | 0.28 ± 0.01 | 186 ± 1 nm | 47 ± 1 | 28 | – | IC50 ([3]; LDH release, 24 hours (Table 1), read-out: ID50 (the source's name)): 261 µM
CCCCCCCCCCCCN(CCCCCCCCCCCC)c1nc(NCCCN)nc(NCCC(=O)O)n1 [Lipid 11] | Unstable Unstable | Unstable Unstable | 42 ± 5 | < 10 | 277 | PDI [2, 17]: 0.98
CCCCCCCCCCCCCCCCCCN(CCCCCCCCCCCCCCCCCC)c1nc(NCCCN)nc(NCCC(=O)O)n1 [Lipid 12] | Unstable Unstable | Unstable Unstable | 70 ± 5 | 42 | 227 | PDI [2, 17]: 0.51

Source: US20250361214A1, “TRIAZINE LIPIDS, LIPID SYNTHESIS, AND METHODS FOR INHIBITING CANONICAL NFKB TRANSCRIPTIONAL ACTIVITY” (University of Kentucky Research Foundation, priority 2022, published 2025)
